Measured values as given in EP0552418A1, “N-substituted-3-iodopropiolamide, production and use thereof” (TAKEDA CHEMICAL INDUSTRIES, LTD., priority 1992, dated 1993).

Experiments:
wood rot fungi = test: Preserving activity for wood preservatives, overall statement for both wood rot fungi; assay type: cell-based, Tyromyces palustris, Coriolus versicolor; conditions: statement in words on Table 2
Protocol: This test was conducted according to Specification No. 1 of Japan Wood Preserving Association, enacted in 1979, amended in 1989 and titled "Test methods of preserving activity for wood preservatives used in the coating, spraying and dipping treatment".
• ① Tyromyces palustris (Ber. et Curt.) Murr., FFPRI 0507 --"Ouzuratake" • ② Coriolus versicolor(L. ex Fr.) Quélet, FFPRI 1030 --"Kawaratake" These two fungi are classified as wood rot fungi.
The antimicrobial operation was performed with specifying types of fungi for corresponding type of trees. The combinations were as follows: Cedar----Tyromyces palustris ("Ouzuratake") Beech----Coriolus versicolor ("Kawaratake")
The test results were presented by the ratio of average weight loss of test specimens due to antimicrobial operation. The standard deviation and coefficient of variation were also determined. The ratio of weight loss for each test specimen was calculated by the following equation, and its average was also determined: The ratio of weight loss(%) = (W₃ - W₄ ) / W₃ × 100. Lower value of the ratio of weight loss corresponds to higher wood preserving activity. […]

[1] = system: Aspergillus Niger, Penicillium funiculosum, Rhizopus javanicus, Aureobasidium pullulans, Gliocladium virens; test: Fungicide activity for wood fungicide, sum over the five fungi and damage value; assay type: cell-based; conditions: for damage value (D = S₁ / S₀ × 100): relative to untreated specimens (100.0), lower = higher activity; for wood fungicide activity: statement in words on Table 3
Protocol: This test was conducted according to Specification No.2 of Japan Wood Preserving Association, enacted in 1979 and titled "Test methods of fungicide activity for wood fungicide".
• ① Aspergillus niger van Tieghem IFO 6341 = ATCC 6275 • ② Penicillium funiculosum Thom (formerly : Penicillium luteum Zukal) IFO 6345 = ATCC 9644 . • ③ Rhizopus javanicus Takeda (formerly : Rhizopus nigricans Ehrenberg S.N. 32) IFO 6354 • ④ Aureobasidium pullulans (de Bary) Arnaud IFO 6353 = IAM (H. Iizuka, F-24) • ⑤ Gliocladium virens Miller, Gidden & Fosteb IFO 6355 = ATCC 9645 (formerly : Trichoderma viride, T.I.)
The average rating (A) was determined for each type of fungi with the following equation: Average rating (A) = (a₁ + a₂ + a₃ + a₄ + a₅ + a₆ ) / 6 [formula] wherein a₁, a₂ ...a₆ : rating for each test specimen.
The damage value was determined with the following equation after determining the sum of average rating by adding each rating of test specimens for each concentration of fungicide solution: S = A₁ + A₂ + A₃ + A₄ + A₅ [formula] wherein A₁, A₂.., A₅: average rating for each type of fungi D = S₁ / S₀ × 100 [formula] wherein S₀ : S for untreated test specimens S₁ : S for specimens treated with certain concentration of fungicide solution
Both lower rating value and lower damage value correspond to higher wood fungicide activity. […]

With `CC(C)(C)NC(=O)C#CI` [Example 1, N-(tert-Butyl)-3-iodopropiolamide] the wood preserving activity (wood rot fungi) was “excellent wood preserving activity”, the “damage value (D = S₁ / S₀ × 100)” value ([1]; 0.5% xylene solution) was 13.3 and the wood fungicide activity [1] was “excellent wood fungicide activity”.

For `CCCCCCCCCCNC(=O)C#CI` [Example 2, N-(n-Decyl)-3-iodopropiolamide], the wood preserving activity (wood rot fungi) was “excellent wood preserving activity” and the “damage value (D = S₁ / S₀ × 100)” value ([1]; 0.5% xylene solution) was 62.2.

In the case of `CCCCNC(=O)C#CI` [Example 4, N-(n-Butyl)-3-iodopropiolamide], the wood preserving activity (wood rot fungi) is reported as “excellent wood preserving activity” and the wood fungicide activity [1] is reported as “excellent wood fungicide activity”.

With `CCC(C)NC(=O)C#CI` (stereo not drawn) [Example 5, N-(sec-Butyl)-3-iodopropiolamide] the wood preserving activity (wood rot fungi) was “excellent wood preserving activity”, the “damage value (D = S₁ / S₀ × 100)” value ([1]; 0.5% xylene solution) was 28.9 and the wood fungicide activity [1] was “excellent wood fungicide activity”.

In the case of `CC(C)CNC(=O)C#CI` [Example 6, N-Isobutyl-3-iodopropiolamide], the wood preserving activity (wood rot fungi) is reported as “excellent wood preserving activity”, the “damage value (D = S₁ / S₀ × 100)” value ([1]; 0.5% xylene solution) is reported as 20.2 and the wood fungicide activity [1] is reported as “excellent wood fungicide activity”.

`CCCCCNC(=O)C#CI` [Example 7, N-(n-Pentyl)-3-iodopropiolamide] was tested, and the wood preserving activity (wood rot fungi) was “excellent wood preserving activity” and the “damage value (D = S₁ / S₀ × 100)” value ([1]; 0.5% xylene solution) was 34.4.

In the case of `CCCCCCNC(=O)C#CI` [Example 8, N-(n-Hexyl)-3-iodopropiolamide], the wood preserving activity (wood rot fungi) is reported as “excellent wood preserving activity”, the “damage value (D = S₁ / S₀ × 100)” value ([1]; 0.5% xylene solution) is reported as 23.3 and the wood fungicide activity [1] is reported as “excellent wood fungicide activity”.

`CCCCCCCCNC(=O)C#CI` [Example 10, N-(n-Octyl)-3-iodopropiolamide] was tested, and the “damage value (D = S₁ / S₀ × 100)” value ([1]; 0.5% xylene solution) was 54.4.

With `CCCCCCCCCNC(=O)C#CI` [Example 11, N-(n-Nonyl)-3-iodopropiolamide] the “damage value (D = S₁ / S₀ × 100)” value ([1]; 0.5% xylene solution) was 82.2 and the “Sum (S = A₁ + A₂ + A₃ + A₄ + A₅)” value ([1]; 0.5% xylene solution, sum of average ratings of five fungi, untreated 15.0) was 12.3.
